Test results taken from the supplement of paper PMC6965134.
± gives the standard deviation of the averaged measurements.

What was measured:
[1] = TIMS collisional cross section (CCS, N2) of the lipid ion; higher = larger ion cross section; settings: ionization mode: negative, one isomer drawn
Description: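 Lipid extracts of human plasma (NIST SRM 1950), mouse liver or HeLa cells were separated by nanoflow C18 LC (30 min gradient) and analysed by TIMS-PASEF on a timsTOF Pro. Ion mobility was calibrated with the Agilent tuning mix (negative mode ions) and converted to collisional cross sections (Mason–Schamp, N2).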

[2] = as above; settings: ionization mode: positive, one isomer drawn

**Q.** Which “TIMS collisional cross section” value ([1]; sample type: Human plasma, ion (formula + adduct): [C26H56NO6P+HCOO] 1-) does the source give for `CCCCCCCCCCCCCCCCCCOCC(O)COP(=O)([O-])OCC[N+](C)(C)C` (centres undefined) [LPC O- 18:0] here?
**A.** 243.4 Å²

**Q.** For `CCCCCCC/C=C\CCCCCCCC(=O)O[C@H](COC(=O)CCCCCCCCCCCCCCC)COP(=O)([O-])OCC[N+](C)(C)C` [PC 16:0_17:1], which “TIMS collisional cross section” value ([1]; sample type: Mouse Liver, ion (formula + adduct): [C41H80NO8P+HCOO] 1-) is on record?
**A.** 288.8 Å²

**Q.** Which “TIMS collisional cross section” value ([1]; sample type: Mouse Liver, ion (formula + adduct): [C48H92NO8P-CH3] 1-) does the source give for `CCCCCC/C=C\CCCCCCCC(=O)OC[C@H](COP(=O)([O-])OCC[N+](C)(C)C)OC(=O)CCCCCCCCCCCCC/C=C\CCCCCCCC` [PC 16:1@_24:1] here?
**A.** 290.9 Å²

**Q.** With `CC/C=C\C/C=C\C/C=C\C/C=C\CCCCCCC(=O)O[C@H](COCCCCCCCCCC/C=C\CCCCCCCC)COP(=O)([O-])OCC[N+](C)(C)C` [PC O- 20:1@_20:4] as the compound, how does the “TIMS collisional cross section” value ([1]; sample type: Human plasma, ion (formula + adduct): [C48H88NO7P+HCOO] 1-) read?
**A.** 302.3 Å²

**Q.** Which “TIMS collisional cross section” value ([1]; sample type: Mouse Liver, ion (formula + adduct): [C50H84NO8P+HCOO] 1-) does the source give for `CC/C=C\C/C=C\C/C=C\C/C=C\C/C=C\C/C=C\CCC(=O)O[C@H](COC(=O)CCCCCCCCC/C=C\C/C=C\CCCCC)COP(=O)([O-])OCC[N+](C)(C)C` [PC 20:2@_22:6] here?
**A.** 303.9 Å²

**Q.** What does the source list for `CC/C=C\C/C=C\C/C=C\C/C=C\C/C=C\CCCCCC(=O)O[C@H](COC(=O)CCCCCCCCC/C=C\CCCCCC)COP(=O)([O-])OCC[N+](C)(C)C` [PC 18:1_22:5]?
**A.** TIMS collisional cross section ([1]; sample type: Human plasma, ion (formula + adduct): [C48H84NO8P+HCOO] 1-): 302.8 Å²; TIMS collisional cross section ([1]; sample type: Mouse Liver, ion (formula + adduct): [C48H84NO8P+HCOO] 1-): 302.2 Å²

**Q.** Which “TIMS collisional cross section” value ([1]; sample type: Mouse Liver, ion (formula + adduct): [C40H79O8P+Cl] 1-) does the source give for `CCCCCCCCCCCCCCCCCCCCC(=O)O[C@H](COC(=O)CCCCCCCCCCCCCCC)COP(=O)(O)O` [PA 16:0_21:0@] here?
**A.** 276.3 Å²

**Q.** For `CC/C=C\C/C=C\C/C=C\C/C=C\C/C=C\C/C=C\CCC(=O)O[C@H](COCCCCCCCCCCCCCCCC)COP(=O)([O-])OCC[N+](C)(C)C` [PC O- 16:0@_22:6], which “TIMS collisional cross section” value ([1]; sample type: Human plasma, ion (formula + adduct): [C46H82NO7P+HCOO] 1-) is on record?
**A.** 298.4 Å²

**Q.** What about the “TIMS collisional cross section” value ([1]; sample type: Mouse Liver, ion (formula + adduct): [C46H82NO7P+HCOO] 1-) of the same compound?
**A.** 296.7 Å²

**Q.** With `CCCCC/C=C\C/C=C\C/C=C\C/C=C\CCCC(=O)O[C@H](COC(=O)CCCCCCCCCCCCCCCC)COP(=O)(O)OCCN` [PE 17:0_20:4] as the compound, how does the “TIMS collisional cross section” value ([1]; sample type: Mouse Liver, ion (formula + adduct): [C42H76NO8P-H] 1-) read?
**A.** 273.9 Å²

**Q.** Which “TIMS collisional cross section” value ([1]; sample type: Human plasma, ion (formula + adduct): [C23H48NO6P-H] 1-) does the source give for `CCCCCCCC/C=C\CCCCCCCCOC[C@@H](O)COP(=O)(O)OCCN` [LPE O- 18:1_0:0] here?
**A.** 218.6 ± 2.1 Å²

**Q.** For `CCCCC/C=C\C/C=C\CCCCCCCCCCCC(=O)O[C@H](COC(=O)CCCCCCC/C=C\CCCCCCCC)COP(=O)(O)OCCN` [PE 18:1_22:2], which “TIMS collisional cross section” value ([1]; sample type: Mouse Liver, ion (formula + adduct): [C45H84NO8P-H] 1-) is on record?
**A.** 284.1 Å²

**Q.** With `CC/C=C\C/C=C\C/C=C\C/C=C\C/C=C\C/C=C\CCC(=O)O[C@H](COC(=O)CCCC/C=C\C/C=C\C/C=C\C/C=C\CC)COP(=O)([O-])OCC[N+](C)(C)C` [PC 18:4@_22:6] as the compound, how does the “TIMS collisional cross section” value ([1]; sample type: Mouse Liver, ion (formula + adduct): [C48H76NO8P-CH3] 1-) read?
**A.** 280 Å²

**Q.** Which “TIMS collisional cross section” value ([1]; sample type: Mouse Liver, ion (formula + adduct): [C42H74NO8P-H] 1-) does the source give for `CCCCC/C=C\C/C=C\C/C=C\C/C=C\CCCC(=O)O[C@H](COC(=O)CCCCCCC/C=C\CCCCCCC)COP(=O)(O)OCCN` [PE 17:1_20:4] here?
**A.** 271.6 Å²

**Q.** Which “TIMS collisional cross section” value ([1]; sample type: Mouse Liver, ion (formula + adduct): [C46H78NO10P-H] 1-) does the source give for `CC/C=C\C/C=C\C/C=C\C/C=C\C/C=C\C/C=C\CCC(=O)OC[C@H](COP(=O)(O)OC[C@H](N)C(=O)O)OC(=O)CCCCCCCCCCCCCCCCC` [PS 22:6_18:0] here?
**A.** 289.7 Å²

**Q.** With `CCCCC/C=C\C/C=C\CCCCCCCC(=O)O[C@@H](CO)COC(=O)CCCCCCCCCCCC` [DG 13:0@_18:2_0:0] as the compound, how does the “TIMS collisional cross section” value ([1]; sample type: Human plasma, ion (formula + adduct): [C34H62O5-H] 1-) read?
**A.** 244.7 Å²

**Q.** For `CCCCCCCC/C=C/CCCCCCCC(=O)OC[C@H](COP(=O)(O)OCCN)OC(=O)CCCCCCC/C=C/CCCCCCCC` [PE 18:1_18:1] (ion (formula + adduct): [C41H78NO8P+Na] 1+), which “TIMS collisional cross section” value ([2]; sample type: HeLa) is on record?
**A.** 279.7 Å²

**Q.** What about the “TIMS collisional cross section” value ([2]; sample type: plasma) of the same compound?
**A.** 280.6 Å²
